Assay results published in patent US20250171438A1 (Agios Pharmaceuticals, Inc., priority 2022, published 2025).

Each compound was assayed against T1, human PAH with the R408W mutation (Homo sapiens, UniProt P00439, R408W) (assay: Cell Based Phenylalanine Flux Assay). Conditions: A375 cells expressing human R408W PAH; 24 hrs compound incubation; 13C-Tyrosine by LC-MS; average where tested multiple times; read-out: AC50.
T1 construct: expressed in transfected cells
T1 sequence (P00439 1-452 R408W): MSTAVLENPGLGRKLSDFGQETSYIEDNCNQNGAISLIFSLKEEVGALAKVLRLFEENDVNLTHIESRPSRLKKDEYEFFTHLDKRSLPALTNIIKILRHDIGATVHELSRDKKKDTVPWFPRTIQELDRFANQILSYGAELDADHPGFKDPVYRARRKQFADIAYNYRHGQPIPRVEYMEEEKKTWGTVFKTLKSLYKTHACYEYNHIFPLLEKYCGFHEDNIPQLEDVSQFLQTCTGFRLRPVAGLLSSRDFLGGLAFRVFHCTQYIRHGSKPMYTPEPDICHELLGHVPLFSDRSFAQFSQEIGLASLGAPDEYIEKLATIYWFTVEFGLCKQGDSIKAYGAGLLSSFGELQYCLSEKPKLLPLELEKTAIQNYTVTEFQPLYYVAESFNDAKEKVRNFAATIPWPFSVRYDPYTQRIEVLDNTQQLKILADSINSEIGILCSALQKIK

Compound | AC50 [nM]
O=C(c1oc(C2(O)CCC2)nc1C(F)(F)F)N1CCc2[nH]cnc2[C@H]1c1nc2c(F)cccc2s1 [Example 1637, (S)-(4-(4-fluorobenzo[d]thiazol-2-yl)-6,7-dihydro-1H-imidazo[4,5-c]pyridin-5(4H)-yl)(2-(1-hydroxycyclobutyl)-4-(trifluoromethyl)oxazol-5-yl)methanone] | < 500
O=C(c1oc(C2(O)CCC2)nc1C(F)(F)F)N1CCc2[nH]cnc2[C@@H]1c1nc2c(F)cccc2s1 [Example 1638, (R)-(4-(4-fluorobenzo[d]thiazol-2-yl)-6,7-dihydro-1H-imidazo[4,5-c]pyridin-5(4H)-yl)(2-(1-hydroxycyclobutyl)-4-(trifluoromethyl)oxazol-5-yl)methanone] | < 500
O=C(c1scnc1Cl)N1CCc2[nH]cnc2[C@@H]1c1nc2c(F)cccc2s1 [Example 1639, (R)-(4-chlorothiazol-5-yl)(4-(4-fluorobenzo[d]thiazol-2-yl)-6,7-dihydro-1H-imidazo[4,5-c]pyridin-5(4H)-yl)methanone] | 1000 to 5000
CN(C)CCn1cc(C(=O)N2CCc3[nH]cnc3[C@H]2c2nc3c(F)cccc3s2)c(C(F)(F)F)n1 [Example 1641] | < 500
CN(C)CCn1cc(C(=O)N2CCc3[nH]cnc3[C@@H]2c2nc3c(F)cccc3s2)c(C(F)(F)F)n1 [Example 1642, (R)-(1-(2-(dimethylamino)ethyl)-3-(trifluoromethyl)-1H-pyrazol-4-yl)(4-(4-fluorobenzo[d]thiazol-2-yl)-6,7-dihydro-1H-imidazo[4,5-c]pyridin-5(4H)-yl)methanone] | 500 to 1000
Cn1cc(C(=O)N2CCc3[nH]cnc3[C@@H]2c2nc3c(F)cccc3s2)c(Cl)n1 [Example 1643, (R)-(3-chloro-1-methyl-1H-pyrazol-4-yl)(4-(4-fluorobenzo[d]thiazol-2-yl)-6,7-dihydro-1H-imidazo[4,5-c]pyridin-5(4H)-yl)methanone] | 1000 to 5000
Cn1cc(C(=O)N2CCc3[nH]cnc3[C@H]2c2nc3c(F)cccc3s2)c(Cl)n1 [Example 1644] | < 500
O=C([C@@H]1CC1(F)F)N1CCc2[nH]cnc2[C@H]1c1nc2c(F)cccc2s1 [Example 1645] | 500 to 1000
O=C([C@@H]1CC1(F)F)N1CCc2[nH]cnc2[C@@H]1c1nc2c(F)cccc2s1 [Example 1646, ((S)-2,2-difluorocyclopropyl)((R)-4-(4-fluorobenzo[d]thiazol-2-yl)-6,7-dihydro-1H-imidazo[4,5-c]pyridin-5(4H)-yl)methanone] | 1000 to 5000
O=C(CC1(O)CCC1)N1CCc2[nH]cnc2[C@H]1c1nc2c(F)cccc2s1 [Example 1647, (S)-1-(4-(4-fluorobenzo[d]thiazol-2-yl)-6,7-dihydro-1H-imidazo[4,5-c]pyridin-5(4H)-yl)-2-(1-hydroxycyclobutyl)ethanone] | 500 to 1000
O=C(CC1(O)CCC1)N1CCc2[nH]cnc2[C@@H]1c1nc2c(F)cccc2s1 [Example 1648, (R)-1-(4-(4-fluorobenzo[d]thiazol-2-yl)-6,7-dihydro-1H-imidazo[4,5-c]pyridin-5(4H)-yl)-2-(1-hydroxycyclobutyl)ethanone] | 1000 to 5000
O=C(CC1CC(F)C1)N1CCc2[nH]cnc2[C@H]1c1nc2c(F)cccc2s1 (stereo partly drawn) [Example 1649, (S)-1-(4-(4-fluorobenzo[d]thiazol-2-yl)-6,7-dihydro-1H-imidazo[4,5-c]pyridin-5(4H)-yl)-2-(3-fluorocyclobutyl)ethanone] | < 500
O=C(CC1CC(F)C1)N1CCc2[nH]cnc2[C@@H]1c1nc2c(F)cccc2s1 (stereo partly drawn) [Example 1650, (R)-1-(4-(4-fluorobenzo[d]thiazol-2-yl)-6,7-dihydro-1H-imidazo[4,5-c]pyridin-5(4H)-yl)-2-(3-fluorocyclobutyl)ethanone] | 1000 to 5000
O=C(N1CCc2[nH]cnc2[C@H]1c1nc2c(F)cccc2s1)C(F)(F)C1(O)CCC1 [Example 1655, (S)-2,2-difluoro-1-(4-(4-fluorobenzo[d]thiazol-2-yl)-6,7-dihydro-1H-imidazo[4,5-c]pyridin-5(4H)-yl)-2-(1-hydroxycyclobutyl)ethanone] | 500 to 1000
O=C(N1CCc2[nH]cnc2[C@@H]1c1nc2c(F)cccc2s1)C(F)(F)C1(O)CCC1 [Example 1656, (R)-2,2-difluoro-1-(4-(4-fluorobenzo[d]thiazol-2-yl)-6,7-dihydro-1H-imidazo[4,5-c]pyridin-5(4H)-yl)-2-(1-hydroxycyclobutyl)ethanone] | 1000 to 5000
O=C(c1oc(CCN2CC(F)C2)nc1C(F)(F)F)N1CCc2[nH]cnc2[C@H]1c1nc2c(F)cccc2s1 [Example 1665] | < 500
O=C(c1oc(CCN2CC(F)C2)nc1C(F)(F)F)N1CCc2[nH]cnc2[C@@H]1c1nc2c(F)cccc2s1 [Example 1666, (R)-(2-(2-(3-fluoroazetidin-1-yl)ethyl)-4-(trifluoromethyl)oxazol-5-yl)(4-(4-fluorobenzo[d]thiazol-2-yl)-6,7-dihydro-1H-imidazo[4,5-c]pyridin-5(4H)-yl)methanone] | < 500

Other lines, results leading:

AC50 [nM] | Compound
500 to 1000 | O=C(c1scnc1Cl)N1CCc2[nH]cnc2[C@H]1c1nc2c(F)cccc2s1 [Example 1640]
500 to 1000 | N#Cc1nc(N2CCC(F)CC2)oc1C(=O)N1CCc2[nH]cnc2[C@H]1c1nc2ccccc2s1 [Example 1651, (S)-5-(4-(benzo[d]thiazol-2-yl)-4,5,6,7-tetrahydro-1H-imidazo[4,5-c]pyridine-5-carbonyl)-2-(4-fluoropiperidin-1-yl)oxazole-4-carbonitrile]
> 5000 | N#Cc1nc(N2CCC(F)CC2)oc1C(=O)N1CCc2[nH]cnc2[C@@H]1c1nc2ccccc2s1 [Example 1652, (R)-5-(4-(benzo[d]thiazol-2-yl)-4,5,6,7-tetrahydro-1H-imidazo[4,5-c]pyridine-5-carbonyl)-2-(4-fluoropiperidin-1-yl)oxazole-4-carbonitrile]
500 to 1000 | O=C(c1cnc(-c2ccccn2)o1)N1CC2(CC2)c2[nH]cnc2[C@H]1c1nc2ccccc2s1 [Example 1653, (S)-(4′-(benzo[d]thiazol-2-yl)spiro[cyclopropane-1,7′-imidazo[4,5-c]pyridin]-5′(1′H,4′H,6′H)-yl)(2-(pyridin-2-yl)oxazol-5-yl)methanone]
1000 to 5000 | O=C(c1cnc(-c2ccccn2)o1)N1CC2(CC2)c2[nH]cnc2[C@@H]1c1nc2ccccc2s1 [Example 1654, (R)-(4′-(benzo[d]thiazol-2-yl)spiro[cyclopropane-1,7′-imidazo[4,5-c]pyridin]-5′(1′H,4′H,6′H)-yl)(2-(pyridin-2-yl)oxazol-5-yl)methanone]
< 500 | O=C(CC1(O)CCC1)N1CCc2[nH]cnc2[C@H]1c1nc2ccccc2s1 [Example 1657]
500 to 1000 | O=C(CC1(O)CCC1)N1CCc2[nH]cnc2[C@@H]1c1nc2ccccc2s1 [Example 1658, (R)-1-(4-(benzo[d]thiazol-2-yl)-6,7-dihydro-1H-imidazo[4,5-c]pyridin-5(4H)-yl)-2-(1-hydroxycyclobutyl)ethanone]
1000 to 5000 | Cc1nc(CCN(C)C)oc1C(=O)N1CCc2[nH]cnc2[C@H]1c1nc2ccccc2s1 [Example 1659]
> 5000 | Cc1nc(CCN(C)C)oc1C(=O)N1CCc2[nH]cnc2[C@@H]1c1nc2ccccc2s1 [Example 1660, (R)-(4-(benzo[d]thiazol-2-yl)-6,7-dihydro-1H-imidazo[4,5-c]pyridin-5(4H)-yl)(2-(2-(dimethylamino)ethyl)-4-methyloxazol-5-yl)methanone]
500 to 1000 | N#Cc1ncoc1C(=O)N1CCc2[nH]cnc2[C@H]1c1nc2c(F)cccc2s1 [Example 1661, (S)-5-(4-(4-fluorobenzo[d]thiazol-2-yl)-4,5,6,7-tetrahydro-1H-imidazo[4,5-c]pyridine-5-carbonyl)oxazole-4-carbonitrile]
1000 to 5000 | N#Cc1ncoc1C(=O)N1CCc2[nH]cnc2[C@@H]1c1nc2c(F)cccc2s1 [Example 1662, (R)-5-(4-(4-fluorobenzo[d]thiazol-2-yl)-4,5,6,7-tetrahydro-1H-imidazo[4,5-c]pyridine-5-carbonyl)oxazole-4-carbonitrile]
> 5000 | N#Cc1ncoc1C(=O)N1CC2(CC2)c2[nH]cnc2[C@@H]1c1nc2ccccc2s1 [Example 1663, (R)-5-(4′-(benzo[d]thiazol-2-yl)-1′,4′,5′,6′-tetrahydrospiro[cyclopropane-1,7′-imidazo[4,5-c]pyridin]-5′-ylcarbonyl)oxazole-4-carbonitrile]
1000 to 5000 | N#Cc1ncoc1C(=O)N1CC2(CC2)c2[nH]cnc2[C@H]1c1nc2ccccc2s1 [Example 1664, (S)-5-(4′-(benzo[d]thiazol-2-yl)-1′,4′,5′,6′-tetrahydrospiro[cyclopropane-1,7′-imidazo[4,5-c]pyridin]-5′-ylcarbonyl)oxazole-4-carbonitrile]
1000 to 5000 | O=C(c1ocnc1C(F)(F)F)N1CC2(CC2)c2[nH]cnc2[C@@H]1c1nc2ccccc2s1 [Example 1667, (R)-(4′-(benzo[d]thiazol-2-yl)spiro[cyclopropane-1,7′-imidazo[4,5-c]pyridin]-5′(1′H,4′H,6′H)-yl)(4-(trifluoromethyl)oxazol-5-yl)methanone]
< 500 | O=C(c1ocnc1C(F)(F)F)N1CC2(CC2)c2[nH]cnc2[C@H]1c1nc2ccccc2s1 [Example 1668, (S)-(4′-(benzo[d]thiazol-2-yl)spiro[cyclopropane-1,7′-imidazo[4,5-c]pyridin]-5′(1′H,4′H,6′H)-yl)(4-(trifluoromethyl)oxazol-5-yl)methanone]
